Test results as given in patent US11247976B2, “Synthetic ligands that modulate the activity of the RhlR quorum sensing receptor” (Wisconsin Alumni Research Foundation, priority 2016, dated 2022).
Entries after “also recorded” stand apart in the source; their conditions may differ.

Legend:
RhlR [1] = biological target: T1, RhlR (Pseudomonas aeruginosa, UniProt P54292); assay: E. coli RhlR reporter antagonism assay vs 10 μM BHL (JLD271/pJN105R2/pSC11-rhlI*); type: cell-based, P. aeruginosa; details: for Maximum Inhibition (%): E. coli reporter, relative to activation of 10 μM BHL alone
T1 construct: expressed in transfected cells; host or cells: E. coli JLD271 (ΔsdiA) with pJN105R2 (arabinose-induced) and pSC11-rhlI*
Protocol: (§1) All media and reagents for bacterial culture were purchased from commercial sources. Bacteria were cultured in Luria-Bertani broth (LB) at 37° C. with shaking at 200 rpm unless otherwise noted. The bacterial reporter strains used for this study were (i) the heterologous E. coli strain JLD271 (ΔsdiA) harboring the RhlR expression plasmid pJN105R2 and the rhlI-lacZ transcriptional fusion reporter pSC11-rhlI*, (ii) the heterologous E. coli strain JLD271 (ΔsdiA) harboring the LasR expression plasmid pJN105L and the […] transcriptional fusion reporter pSC11, and (iii) the P. aeruginosa strain PAO-JP2 (ΔlasrhlI) harboring the rhlI-gfp transcriptional fusion reporter prhlI-LVAgfp. Reporter strains JLD271/pJN105R2/pSC11-rhlI* and JLD271/pJN105L/pSC11 were grown in LB containing 100 μg/mL ampicillin and 10 μg/mL gentamicin. Freezer stocks of bacterial strains were maintained at −80° C. in 1:1 LB:50% glycerol.
To evaluate the modulatory activities of library compounds on RhlR and LasR using E. coli reporters, the strains JLD271/pJN105R2/pSC11-rhlI* and JLD271/pJN105L/pSC11 were used, respectively, as previously described.^38, 51 The following modifications were used in the RhlR agonism reporter assay, non-native compounds (10 μM or 1 mM) were compared to 1 mM BHL as the positive control. Briefly, a subculture was prepared by diluting an overnight culture 1:10 with fresh media containing 100 μg/mL ampicillin and 10 μg/mL gentamicin, and was incubated until it had grown to OD600=0.45. In all assays, L-arabinose was added to a final concentration of 4 mg/mL to induce RhlR expression. For RhlR agonism assays, activities of test compounds were measured relative to 1 mM BHL (the concentration required to induce a maximal level of RhlR activity). […] Activity was measured relative to 10 μM BHL. Inhibition was calculated by subtracting 100% from the relative activity value. Thus, 0% inhibition mimics represents no competitive displacement of 10 μM BHL by a test compound. In all assays, modifications were made to the standard Miller assay protocol to accommodate the use of the chlorophenol red-β-D-galactopyranoside (CPRG) β-galactosidase substrate. After cell lysis, 150 μL of the aqueous layer was transferred from each well of a solvent-resistant 96-well microtiter plate to the wells of a new clear, flat-bottom 96-well microtiter plate. CPRG (4 mg/mL in phosphate-buffered saline) was added to each well in 25 μL volumes. Plates were incubated at 30° C. until the positive control wells developed a red color (approximately 30 min). The amount of processed CPRG substrate was assessed by measuring the absorbance of each well at 570 nm. Enzymatic activity was calculated using the following equation: adjusted Miller units=1000·Abs570/(OD600·t·V),
(§2) where t is the incubation time of substrate with lysate and V is the volume of culture lysed.
The RhlR-modulatory activity of the J library compounds was assessed in a heterologous reporter strain (E. coli JLD271 harboring plasmids pJN105R2 and pSC11-rhlI*) in order to isolate the RhlR receptor from upstream QS regulation (e.g. regulation by LasR). Thus, the extent to which compounds were directly modulating RhlR could be determined. These assays were performed by incubating compound-treated, mid-log phase E. coli reporter cells in 96-well microtiter plates, followed by Miller assay evaluation of ß-galactosidase activity.
RhlR agonism and antagonism screens of each compound were performed initially at 10 μM.

RhlR [2] = biological target: T1, RhlR; assay: P. aeruginosa RhlR reporter antagonism assay vs 10 μM BHL (PAO-JP2/prhlI-LVAgfp); type: cell-based
Protocol: FIGS. 10A and B illustrate exemplary dose-response curves for RhlR antagonism in the E. coli JLD271/pJN105R2/pSC11-rhlI* reporter strain vs. 10 μM BHL (FIG. 10A) and in the P. aeruginosa PAO-JP2/prhlI-LVAgfp reporter strain vs. 10 μM BHL (FIG. 10B).
(§3) To evaluate the RhlR-modulatory activities of selected compounds in P. aeruginosa, the ΔlasIrhlI strain PAO-JP2 harboring plasmid prhlI-LVAgfp was used as previously reported.^38 Briefly, a subculture was prepared by diluting an overnight culture 1:100 in fresh LB and was grown to OD600=0.3. […] Subculture was treated with 100 nM OdDHL (to induce native expression of RhlR) by adding the appropriate amount of OdDHL stock solution in DMSO. The subculture was then dispensed ([…] aliquots) into each synthetic compound-containing well of the microtiter plate.
(§4) Plates were incubated at 37° C. for 6 h, and GFP production was monitored by using a Synergy 2 plate reader (λex=500 nm, λem=540 nm; BioTek, Winooski, Vt.) and quantified with Gen5 1.05 software (BioTek). The final OD600 for each well was measured to normalize GFP production to cell density. All synthetic compounds were tested in triplicate, and three separate trials were performed with unique cultures. Agonism dose-response analyses were performed by testing compounds over a range of concentrations with the RhlR reporter.

[3] = Hydrolytic stability in buffers of varying pH by HPLC; type: physicochemical; details: room temperature
Protocol: To assess the relative stability of the thiolactone and homoserine lactone moieties, stability studies were performed as reported previously,^53 with the following changes. Compounds RN22 and E22 (50 μM) were dissolved in either 1 mM 2-(N-morpholino)-ethanesulfonic acid (MES) buffer at pH 6, or 1 mM tris(hydroxymethyl)-aminomethane (TRIS) buffer at pH 7, pH 8, or pH 9. Solutions were placed static at room temperature, and 150 μL aliquots were taken every two hours for eight hours, then again at 24 hours. Samples were immediately separated via HPLC, and the area under the curve (AUC) at 220 nm was calculated and compared to the area at t=0. […] Degradation of both compounds to the hydrolysis product was confirmed via mass spectrometry of the resulting byproduct peak.
P. aeruginosa media is observed to become more alkaline over time, making the hydrolytic instability of the homoserine lactone head group a concern in developing AHL-type modulators for use in the wild-type organism. […] To evaluate their stability in a more direct assay, the stability of thiolactone RN22 relative to its lactone homolog E22 was monitored over time and at varying pH values using HPLC. The amount of compound RN22 remaining over 24 h was compared to E22. […] Degradation products were confirmed to be the hydrolyzed lactone head groups via mass spectroscopy.

RhlR [4] = biological target: T1, RhlR; assay: E. coli RhlR reporter agonism assay (JLD271/pJN105R2/pSC11-rhlI*); type: cell-based, P. aeruginosa; details: compound at 10 μM; RhlR activity relative to 1 mM BHL; E. coli reporter
Protocol: as §1
To evaluate the modulatory activities of library compounds on RhlR and LasR using E. coli reporters, the strains JLD271/pJN105R2/pSC11-rhlI* and JLD271/pJN105L/pSC11 were used, respectively, as previously described.^38, 51 The following modifications were used in the RhlR agonism reporter assay, non-native compounds (10 μM or 1 mM) were compared to 1 mM BHL as the positive control. Briefly, a subculture was prepared by diluting an overnight culture 1:10 with fresh media containing 100 μg/mL ampicillin and 10 μg/mL gentamicin, and was incubated until it had grown to OD600=0.45. In all assays, L-arabinose was added to a final concentration of 4 mg/mL to induce RhlR expression. For RhlR agonism assays, activities of test compounds were measured relative to 1 mM BHL (the concentration required to induce a maximal level of RhlR activity). For RhlR antagonism assays, test compounds were competed against a concentration of BHL approximately equal to its EC50 value (10 μM). Activity was measured relative to 10 μM BHL. Inhibition was calculated by subtracting 100% from the relative activity value. Thus, 0% inhibition mimics represents no competitive displacement of 10 μM BHL by a test compound. In all assays, modifications were made to the standard Miller assay protocol to accommodate the use of the chlorophenol red-β-D-galactopyranoside (CPRG) β-galactosidase substrate. After cell lysis, 150 μL of the aqueous layer was transferred from each well of a solvent-resistant 96-well microtiter plate to the wells of a new clear, flat-bottom 96-well microtiter plate. CPRG (4 mg/mL in phosphate-buffered saline) was added to each well in 25 μL volumes. Plates were incubated at 30° C. until the positive control wells developed a red color (approximately 30 min). The amount of processed CPRG substrate was assessed by measuring the absorbance of each well at 570 nm. Enzymatic activity was calculated using the following equation: adjusted Miller units=1000·Abs570/(OD600·t·V),
as §2
Because LuxR-type receptors are often unstable in solution, preventing the use of in vitro assays to directly assess small molecule agonism and antagonism, reporter gene assays represent a standard method for screening small-molecule libraries for LuxR-type receptor modulation. Previously reported strains for this purpose were used in the current study.^38 Synthetic N-butanoyl L-homoserine lactone (BHL), the native ligand of RhlR, was used as the positive control for receptor activation. Commonly, agonists are measured relative to maximum possible receptor activation within a particular assay medium;^40 because the dose-response curve of BHL is distinctly shallow in these RhlR reporters, a high concentration of BHL is required to maximally activate RhlR. In this study, activation of compounds was measured relative to that elicited by 1 mM BHL (the concentration of BHL used causes no aberrant growth effects in the reporter strain). […]

RhlR [5] = biological target: T1, RhlR; assay: P. aeruginosa RhlR reporter agonism assay (PAO-JP2/prhlI-LVAgfp); type: cell-based; details: P. aeruginosa reporter compared with E. coli reporter
Protocol: as §1, §3, §4
Library compounds J18 and J24, as well as controls BHL and S4, were evaluated for potency in the native genetic background of RhlR by using the P. aeruginosa strain PAO-JP2 (ΔlasIrhlI) harboring the RhlR reporter plasmid prhlI-LVAgfp (Table 3). Because the production of RhlR is dependent on LasR (in LB medium), all assays were performed in the presence of 100 nM OdDHL, enabling immediate transcription of RhlR via LasR activation. […] All compounds also retained similar potencies when screened in the P. aeruginosa background.

T1 sequence (P54292 whole entry): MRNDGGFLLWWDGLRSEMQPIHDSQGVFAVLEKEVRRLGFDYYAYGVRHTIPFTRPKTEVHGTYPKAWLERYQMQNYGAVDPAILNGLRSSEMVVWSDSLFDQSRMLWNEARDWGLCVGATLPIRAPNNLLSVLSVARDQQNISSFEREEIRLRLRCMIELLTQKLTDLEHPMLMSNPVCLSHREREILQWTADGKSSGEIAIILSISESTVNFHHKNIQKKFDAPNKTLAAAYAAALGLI

SMILES | IC50 (RhlR [1]) [µM] | Maximum Inhibition (%) (RhlR [1]) | IC50 (RhlR [2]) [µM] | Maximum Inhibition (%) (RhlR [2]; P. aeruginosa reporter, relative to activation of 10 μM BHL alone) | fold change of IC50 from E. coli to P. aeruginosa reporter (RhlR [2]; vs 10 μM BHL) [fold] | increase of maximum inhibition from E. coli to P. aeruginosa reporter (RhlR [2]; vs 10 μM BHL) | half-life at 50 μM ([3]; pH 6, 1 mM MES buffer) [h] | half-life at 50 μM ([3]; pH 7, 1 mM TRIS buffer) [h] | half-life at 50 μM ([3]; pH 8, 1 mM TRIS buffer) [h] | half-life at 50 μM ([3]; pH 9, 1 mM TRIS buffer) [h] | activation at 10 µM (RhlR [4]) [%] | RhlR antagonist activity in words (RhlR [1]; E. coli reporter vs 10 μM BHL) | inhibition at 10 µM (RhlR [1]; read-out: % inhibition (10 μM), compound at 10 μM in the presence of 10 μM BHL, negative = agonism stronger than 10 μM BHL alone) [%] | inhibition at 1000 µM (RhlR [1]; read-out: % inhibition (1 mM), compound at 1 mM in the presence of 10 μM BHL, negative = agonism stronger than 10 μM BHL alone) [%] | RhlR agonist potency in words (RhlR [5])
O=C(COc1ccc(I)cc1)NC1CCOC1=O (centres unmarked) [Compound E22, reference compound] | 17.3 | 74 | 23.9 | 96 | ~1.4 | more than 20% | 182 | 48.1 | 10.1 | 2.3 |  |  |  |  | 
O=C(NC1CCCC1)C1CCC1 [RN13] | 26.7 | 32 |  |  |  |  |  |  |  |  | 0 | potent antagonist activity; also recorded: two-fold increased potency as measured by IC50 over parent compound RN4; also recorded: undesirable non-monotonic behavior | 24 | 25 | maintained activity between the two different reporters
